Test results as given in article PMC8185074, “Anchor extension: a structure-guided approach to design cyclic peptides targeting enzyme active sites” (Nature Communications, 2021).
Peptide text beside a SMILES is read from it.

Assays:
[1] = biological target: T1, HDAC2 (Homo sapiens, UniProt Q92769); assay: HDAC2 inhibition, full IC50 measurement (Reaction Biology; fluorogenic p53 peptide RHKK(Ac)AMC); format: biochemical
T1 construct: purchased Reaction Biology Corporation (assay run by the CRO)
T1 sequence (Q92769 whole entry): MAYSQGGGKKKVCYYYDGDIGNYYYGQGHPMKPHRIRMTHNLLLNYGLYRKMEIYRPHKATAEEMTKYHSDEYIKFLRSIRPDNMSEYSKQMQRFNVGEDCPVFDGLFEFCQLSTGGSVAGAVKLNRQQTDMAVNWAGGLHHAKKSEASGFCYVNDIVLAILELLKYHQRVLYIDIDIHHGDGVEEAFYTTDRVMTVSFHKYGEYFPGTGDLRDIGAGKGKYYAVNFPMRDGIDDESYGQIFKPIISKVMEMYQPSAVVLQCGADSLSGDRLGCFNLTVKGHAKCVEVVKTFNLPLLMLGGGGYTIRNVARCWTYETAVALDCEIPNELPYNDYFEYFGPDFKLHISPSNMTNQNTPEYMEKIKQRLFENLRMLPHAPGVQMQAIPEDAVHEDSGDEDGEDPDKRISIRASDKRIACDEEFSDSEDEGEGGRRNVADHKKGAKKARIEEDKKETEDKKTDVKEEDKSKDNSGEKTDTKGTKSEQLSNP
Procedure: (§1) The assay was performed using 50 μM fluorogenic peptide from p53 residues 379-382 [RHKK(Ac)AMC] in a base reaction buffer of 50 mM Tris-HCl at pH 8.0, 137 mM NaCl, 2.7 mM KCl, 1 mM MgCl2, and freshly added 1 mg/ml BSA and 1% DMSO. Peptides were first dissolved in DMSO and then added to the reaction mixture with the enzyme using acoustic technique, enough to reach the desired concentration for that assay point. Peptide concentrations were calculated based on mass of lyophilized peptide and its molecular weight. The substrate was then added and incubated for 1 hour at 30 °C in a sealed container. After the incubation, developer was added to stop the reaction and develop color. Kinetic measurements were then performed for 20 min with Envision with 5 min intervals (Ex/Em = 360/460 nm). The endpoint after plateau was taken for IC50 measurement.
(§2) In cases where duplicate measures are used, average data is reported in the main text or Supplementary Tables.

[2] = biological target: T2, HDAC6 (Homo sapiens, UniProt Q9UBN7); assay: HDAC6 inhibition, full IC50 measurement (Reaction Biology; fluorogenic p53 peptide RHKK(Ac)AMC); format: biochemical
T2 construct: purchased Reaction Biology Corporation (assay run by the CRO)
T2 sequence (Q9UBN7 1-1215): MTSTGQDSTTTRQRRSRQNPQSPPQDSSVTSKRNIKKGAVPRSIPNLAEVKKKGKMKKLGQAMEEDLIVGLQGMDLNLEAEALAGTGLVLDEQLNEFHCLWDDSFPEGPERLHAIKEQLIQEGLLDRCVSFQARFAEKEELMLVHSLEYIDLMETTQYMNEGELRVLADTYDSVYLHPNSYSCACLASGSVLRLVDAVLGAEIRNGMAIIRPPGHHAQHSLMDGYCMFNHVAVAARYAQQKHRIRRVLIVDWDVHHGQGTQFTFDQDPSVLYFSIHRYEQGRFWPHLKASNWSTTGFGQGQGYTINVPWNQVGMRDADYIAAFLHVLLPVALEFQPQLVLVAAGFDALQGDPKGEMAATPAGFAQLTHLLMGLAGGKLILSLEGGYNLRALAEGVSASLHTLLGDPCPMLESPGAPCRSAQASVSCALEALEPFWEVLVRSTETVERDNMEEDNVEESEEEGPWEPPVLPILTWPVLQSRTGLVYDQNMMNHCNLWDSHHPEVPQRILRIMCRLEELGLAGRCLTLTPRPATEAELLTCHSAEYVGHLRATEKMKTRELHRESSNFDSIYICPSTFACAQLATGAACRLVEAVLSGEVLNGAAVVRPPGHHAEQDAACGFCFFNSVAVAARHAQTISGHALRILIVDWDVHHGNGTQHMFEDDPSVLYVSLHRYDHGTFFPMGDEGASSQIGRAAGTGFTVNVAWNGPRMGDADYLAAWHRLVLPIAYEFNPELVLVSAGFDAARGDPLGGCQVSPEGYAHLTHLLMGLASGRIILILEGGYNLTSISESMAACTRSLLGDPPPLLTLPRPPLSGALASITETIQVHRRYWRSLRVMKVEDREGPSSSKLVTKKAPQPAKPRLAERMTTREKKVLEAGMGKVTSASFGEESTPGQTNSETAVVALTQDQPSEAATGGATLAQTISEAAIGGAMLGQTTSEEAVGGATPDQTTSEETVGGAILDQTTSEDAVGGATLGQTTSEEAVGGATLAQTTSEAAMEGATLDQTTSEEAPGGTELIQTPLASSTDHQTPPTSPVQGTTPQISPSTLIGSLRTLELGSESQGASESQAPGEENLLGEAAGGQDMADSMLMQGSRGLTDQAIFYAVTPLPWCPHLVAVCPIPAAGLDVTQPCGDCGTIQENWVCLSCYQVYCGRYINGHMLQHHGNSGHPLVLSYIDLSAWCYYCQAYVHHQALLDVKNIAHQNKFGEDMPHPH
Procedure: as §1, §2

Compound: CCCC[C@H]1NC(=O)[C@H](CC(=O)O)NC(=O)[C@@H](CO)NC(=O)[C@@H](C)NC(=O)[C@H](CCCCN)NC(=O)[C@@H](CCCCN)NC(=O)[C@H](Cc2ccccc2)NC(=O)[C@H](CCCCCS)NC1=O [des4.3.1.2, SHA-Phe-dLys-Lys-dAla-dSer-Asp-dNle] (HELM PEPTIDE1{D.[CCCC[C@@H](N[*:1])C(=O)[*:2]].[O=C([C@H](CCCCCS)N[*:1])[*:2]].F.[dK].K.[dA].[dS]}$PEPTIDE1,PEPTIDE1,1:R1-8:R2$$$V2.0)
- HDAC2 activity raw data (signal) ([1]; Conc. 1.00E-05 M, t1): 1148842
- HDAC2 activity raw data (signal) ([1]; Conc. 1.00E-05 M, t2): 1124925
- HDAC2 activity raw data (signal) ([1]; Conc. 1.11E-06 M, t1): 1654730
- HDAC2 activity raw data (signal) ([1]; Conc. 1.11E-06 M, t2): 1704574
- HDAC2 activity raw data (signal) ([1]; Conc. 1.23E-07 M, t1): 1694685
- HDAC2 activity raw data (signal) ([1]; Conc. 1.23E-07 M, t2): 1708262
- HDAC2 activity raw data (signal) ([1]; Conc. 1.37E-08 M, t1): 1883329
- HDAC2 activity raw data (signal) ([1]; Conc. 1.37E-08 M, t2): 1685214
- HDAC2 activity raw data (signal) ([1]; Conc. 1.52E-09 M, t1): 1920222
- HDAC2 activity raw data (signal) ([1]; Conc. 1.52E-09 M, t2): 1770203
- HDAC2 activity raw data (signal) ([1]; Conc. 3.33E-06 M, t1): 1489645
- HDAC2 activity raw data (signal) ([1]; Conc. 3.33E-06 M, t2): 1397108
- HDAC2 activity raw data (signal) ([1]; Conc. 3.70E-07 M, t1): 1733657
- HDAC2 activity raw data (signal) ([1]; Conc. 3.70E-07 M, t2): 1639218
- HDAC2 activity raw data (signal) ([1]; Conc. 4.12E-08 M, t1): 1743081
- HDAC2 activity raw data (signal) ([1]; Conc. 4.12E-08 M, t2): 1732768
- HDAC2 activity raw data (signal) ([1]; Conc. 4.57E-09 M, t1): 1828637
- HDAC2 activity raw data (signal) ([1]; Conc. 4.57E-09 M, t2): 1698186
- HDAC2 activity raw data (signal) ([1]; Conc. 5.08E-10 M, t1): 1916889
- HDAC2 activity raw data (signal) ([1]; Conc. 5.08E-10 M, t2): 1862597
- 6-Selectivity: fold potency for HDAC6 over HDAC2 [2]: > 100 fold
- HDAC6 activity raw data (signal) ([2]; Conc. 1.00E-05 M, t1): 342990
- HDAC6 activity raw data (signal) ([2]; Conc. 1.00E-05 M, t2): 304678
- HDAC6 activity raw data (signal) ([2]; Conc. 1.11E-06 M, t1): 1091316
- HDAC6 activity raw data (signal) ([2]; Conc. 1.11E-06 M, t2): 1078978
- HDAC6 activity raw data (signal) ([2]; Conc. 1.23E-07 M, t1): 1593999
- HDAC6 activity raw data (signal) ([2]; Conc. 1.23E-07 M, t2): 1556041
- HDAC6 activity raw data (signal) ([2]; Conc. 1.37E-08 M, t1): 1690122
- HDAC6 activity raw data (signal) ([2]; Conc. 1.37E-08 M, t2): 1641196
- HDAC6 activity raw data (signal) ([2]; Conc. 1.52E-09 M, t1): 1700998
- HDAC6 activity raw data (signal) ([2]; Conc. 1.52E-09 M, t2): 1770848
- HDAC6 activity raw data (signal) ([2]; Conc. 3.33E-06 M, t1): 689811
- HDAC6 activity raw data (signal) ([2]; Conc. 3.33E-06 M, t2): 662211
- HDAC6 activity raw data (signal) ([2]; Conc. 3.70E-07 M, t1): 1440305
- HDAC6 activity raw data (signal) ([2]; Conc. 3.70E-07 M, t2): 1367836
- HDAC6 activity raw data (signal) ([2]; Conc. 4.12E-08 M, t1): 1630143
- HDAC6 activity raw data (signal) ([2]; Conc. 4.12E-08 M, t2): 1649164
- HDAC6 activity raw data (signal) ([2]; Conc. 4.57E-09 M, t1): 1710532
- HDAC6 activity raw data (signal) ([2]; Conc. 4.57E-09 M, t2): 1671153
- HDAC6 activity raw data (signal) ([2]; Conc. 5.08E-10 M, t1): 1797804
- HDAC6 activity raw data (signal) ([2]; Conc. 5.08E-10 M, t2): 1739375

Compound: CCCC[C@H]1NC(=O)[C@H](Cc2ccccc2)NC(=O)[C@H](CCCCCS)NC(=O)[C@@H](CCCNC(=N)N)NC(=O)[C@H](C)NC(=O)[C@@H](CO)NC(=O)[C@@H](C)NC(=O)[C@H](CCCCN)NC1=O [des4.3.1.3, SHA-Phe-dNle-Lys-dAla-dSer-Ala-dArg] (HELM PEPTIDE1{A.[dR].[O=C([C@H](CCCCCS)N[*:1])[*:2]].F.[CCCC[C@@H](N[*:1])C(=O)[*:2]].K.[dA].[dS]}$PEPTIDE1,PEPTIDE1,1:R1-8:R2$$$V2.0)
- HDAC2 activity raw data (signal) ([1]; Conc. 1.00E-05 M, t1): 193929
- HDAC2 activity raw data (signal) ([1]; Conc. 1.00E-05 M, t2): 207672
- HDAC2 activity raw data (signal) ([1]; Conc. 1.11E-06 M, t1): 922315
- HDAC2 activity raw data (signal) ([1]; Conc. 1.11E-06 M, t2): 983057
- HDAC2 activity raw data (signal) ([1]; Conc. 1.23E-07 M, t1): 1473586
- HDAC2 activity raw data (signal) ([1]; Conc. 1.23E-07 M, t2): 1600746
- HDAC2 activity raw data (signal) ([1]; Conc. 1.37E-08 M, t1): 1736023
- HDAC2 activity raw data (signal) ([1]; Conc. 1.37E-08 M, t2): 1721378
- HDAC2 activity raw data (signal) ([1]; Conc. 1.52E-09 M, t1): 1807312
- HDAC2 activity raw data (signal) ([1]; Conc. 1.52E-09 M, t2): 1809308
- HDAC2 activity raw data (signal) ([1]; Conc. 3.33E-06 M, t1): 507679
- HDAC2 activity raw data (signal) ([1]; Conc. 3.33E-06 M, t2): 555133
- HDAC2 activity raw data (signal) ([1]; Conc. 3.70E-07 M, t1): 1323328
- HDAC2 activity raw data (signal) ([1]; Conc. 3.70E-07 M, t2): 1396903
- HDAC2 activity raw data (signal) ([1]; Conc. 4.12E-08 M, t1): 1569368
- HDAC2 activity raw data (signal) ([1]; Conc. 4.12E-08 M, t2): 1738468
- HDAC2 activity raw data (signal) ([1]; Conc. 4.57E-09 M, t1): 1706591
- HDAC2 activity raw data (signal) ([1]; Conc. 4.57E-09 M, t2): 1632561
- HDAC2 activity raw data (signal) ([1]; Conc. 5.08E-10 M, t1): 1698338
- HDAC2 activity raw data (signal) ([1]; Conc. 5.08E-10 M, t2): 1730008
- 6-Selectivity: fold potency for HDAC6 over HDAC2 [2]: 140 fold
- HDAC6 activity raw data (signal) ([2]; Conc. 1.00E-05 M, t1): -1435
- HDAC6 activity raw data (signal) ([2]; Conc. 1.00E-05 M, t2): 8169
- HDAC6 activity raw data (signal) ([2]; Conc. 1.11E-06 M, t1): 31133
- HDAC6 activity raw data (signal) ([2]; Conc. 1.11E-06 M, t2): 32571
- HDAC6 activity raw data (signal) ([2]; Conc. 1.23E-07 M, t1): 145819
- HDAC6 activity raw data (signal) ([2]; Conc. 1.23E-07 M, t2): 156860
- HDAC6 activity raw data (signal) ([2]; Conc. 1.37E-08 M, t1): 703698
- HDAC6 activity raw data (signal) ([2]; Conc. 1.37E-08 M, t2): 730719
- HDAC6 activity raw data (signal) ([2]; Conc. 1.52E-09 M, t1): 1278425
- HDAC6 activity raw data (signal) ([2]; Conc. 1.52E-09 M, t2): 1354635
- HDAC6 activity raw data (signal) ([2]; Conc. 3.33E-06 M, t1): -1405
- HDAC6 activity raw data (signal) ([2]; Conc. 3.33E-06 M, t2): 24989
- HDAC6 activity raw data (signal) ([2]; Conc. 3.70E-07 M, t1): 60632
- HDAC6 activity raw data (signal) ([2]; Conc. 3.70E-07 M, t2): 66340
- HDAC6 activity raw data (signal) ([2]; Conc. 4.12E-08 M, t1): 363100
- HDAC6 activity raw data (signal) ([2]; Conc. 4.12E-08 M, t2): 336992
- HDAC6 activity raw data (signal) ([2]; Conc. 4.57E-09 M, t1): 1071704
- HDAC6 activity raw data (signal) ([2]; Conc. 4.57E-09 M, t2): 1051810
- HDAC6 activity raw data (signal) ([2]; Conc. 5.08E-10 M, t1): 1597632
- HDAC6 activity raw data (signal) ([2]; Conc. 5.08E-10 M, t2): 1554939
